Article PMC7026882, “Macrofilaricidal Benzimidazole–Benzoxaborole Hybrids as an Approach to the Treatment of River Blindness: Part 2. Ketone Linked Analogs” (ACS Infectious Diseases, 2019)
pIC50: −log10 of the molar value. Read-outs that look alike come from different tables or passages of the source.

Legend:
[1] = Metabolite ID studies, in vitro and in vivo; type: in vitro ADME; settings: in vitro or in vivo experiments
From the text: However, the metabolism of flubendazole by the reduction of the ketone leads to short-lived clastogenic metabolites at low levels that may pose a minimal risk.[28]

Brugia pahangi = assay: In vivo efficacy in the L3 Brugia pahangi gerbil model; settings: for Number of Worms Recovered, Avg Female Worms / Number of Worms Recovered, Avg Male Worms: PO, 100 mg/kg, recovery day 63
Experimental: For our in vivo model, gerbils were infected by injecting B. pahangi third-stage larvae (L3) that were subsequently allowed to develop to adult worms over several months. Once stable infections had been established, 21 was administered as a suspension via once-daily oral gavage at a dose of 100 mg/kg for 7, 14, or 28 days. All animals were maintained until day 63 after the start of dosing, at which time adult worms were recovered from the peritoneal cavity and microfilariae were quantified in blood samples. Flubendazole (5 mg/kg, SC × 5 days) was included as a positive control in this study. […]
(§1) in comparison to the number of control larvae that had successfully molted. IC50 values were calculated using GraphPad Prism v6.0 (http://www.graphpad.com). See Bullman et al., PLoS
(§2) Negl. Trop. Dis., 2015, 9, e3534 for further details.
(§3) Adult Brugia malayi in vivo model procedure.
(§4) Gerbils (Meriones unguiculatus) were infected by transplantation of 10 male and 10 female adult Brugia malayi into the peritoneal cavity. Gerbils were acclimated for 7 days prior to treatment. Animals were dosed based on their body weight prior to each dosing. Animals were administered their doses at the same time each day and receive standard rodent laboratory diet and water ad libitum. Gerbils were humanely euthanized at the conclusion of each study.
(§5) Peritoneal counts of male and female adult B. malayi and visual condition of the peritoneum […]
(§6) L3 Brugia pahangi in vivo model procedure.
(§7) Male gerbils (Meriones unguiculatus) approximately 6 weeks of age (50-60 g) were purchased from Charles Rivers (USA, Kingston K62 Gerbils) and infected by intraperitoneal injection with 200 Brugia pahangi third-stage larvae (L3) per animal (Filariatech, Inc., Athens, GA). Gerbils were housed with no more than 5 animals per cage and maintained 9 months prior to treatment. All gerbils were dosed in accordance with their body weight determined prior to each dosing. Animals were administered their doses at the same time each day and are allowed to feed and drink ad libitum. Gerbils were euthanized following approved institutional protocols. Euthanized animals were weighed and examined for external and visceral pathologies. The adult Brugia worms were recovered by opening the body cavity and washing the peritoneal cavity with 100 mL of phosphate buffered saline. Male and female worms were counted using a dissecting microscope.
(§8) Litomosoides sigmodontis in vivo model procedure. 2
(§9) All animal experiments with L. sigmodontis were conducted at the Institute for Medical Microbiology, Immunology and Parasitology (IMMIP), University Hospital of Bonn, in accordance to the European Union animal welfare guidelines. All protocols were approved by the local authorities (Landesamt für Natur, Umwelt und Verbraucherschutz, Cologne, Germany (AZ 84- […]
(§10) Janvier (Saint-Berthevin, France) and were housed at the animal facility of the IMMIP in individually ventilated cages on a 12h light/dark cycle with food and water ad libidum. Mice were infected at 6-8 weeks of age via exposure to the natural mite vector Ornithonyssus bacoti

[2] = MDCK-MDR1 cell monolayer permeability assay; type: in vitro ADME; settings: dog
From the text: (§11) As summarized in Table 1, we were encouraged to find that the initial ketone analogs prepared, namely, 15 (6-linked) and 20 (5-linked), were quite active in an O. volvulus molting assay we used as a primary indicator of antiparasitic activity[30],[31] and were only weakly active in a G2/M arrest,[32] indicative of the interaction with mammalian tubulin. As described above, our hypothesis was to reduce Pgp efflux liability through elimination of the hydrogen-bond donor associated with the N–H of the amide linker, as this has been shown in the literature to be a contributor to recognition by Pgp.[33],[34] […] We were disappointed to find that the 5-linked analog 22 was poorly selective and the 6-linked analog 23 was only weakly active.

MDCK-MDR1 cell monolayer = MDCK-MDR1 cell monolayer permeability assay; type: in vitro ADME
From the text: as §11

[3] = Pharmacokinetics in Mongolian gerbils; type: in vivo
From the text: (§12) In addition, the concentrations achieved at these doses were well in excess of the O. volvulus IC50, a requirement for in vivo activity that we had hypothesized on the basis of earlier work in the amide-linked series.

[4] = Tolerability of once daily dosing to gerbils over 7 days; type: in vivo
From the text: as §12

[5] = Metabolic stability (Clint) in human microsomes; type: in vitro ADME
From the text: as §11

O. volvulus = O. volvulus molting assay; type: cell-based; settings: Onchocerca volvulus; molting assay
From the text: as §11, with “active. […]” for “active.”
as §1, §2, §3, §4, §5, §6, §7, §8, §9, §10

[6] = test system: mammalian tubulin (G2/M arrest); assay: G2/M arrest assay, indicative of interaction with mammalian tubulin; type: cell-based
From the text: as §11

For `COC(=O)Nc1nc2ccc(C(=O)c3cccc4c3B(O)OC4)cc2[nH]1` [compound 21], the “metabolism in metabolite ID studies” value [1] was “have not observed a significant metabolism”, the “effective in killing female worms” value (Brugia pahangi; 100 mg/kg PO once daily for 14 days) was 99% and the “effective in killing female worms” value (Brugia pahangi; 100 mg/kg PO once daily for 28 days) was 99%. The effect on worms (Brugia pahangi; 100 mg/kg PO once daily for only 7 days) was “very little effect”, the “Number of Worms Recovered, Avg Female Worms” value (“Number … Avg Female Worms” below) (Brugia pahangi; 7 days, QD) was 13.0 and the “Number of Worms Recovered, Avg Male Worms” value (“Number … Avg Male Worms” for short) (Brugia pahangi; 7 days, QD) was 25.2. The “Number … Avg Female Worms” value (Brugia pahangi; 14 days, QD) was 0.6, the “Number … Avg Male Worms” value (Brugia pahangi; 14 days, QD) was 11.4 and the “Number … Avg Female Worms” value (Brugia pahangi; 28 days QD) was 0.1. The “Number … Avg Male Worms” value (Brugia pahangi; 28 days QD) was 11.1, the Papp [2] was 56.6 ×10⁻⁶ cm/s and the MDCK-MDR1 Papp (A-B) (MDCK-MDR1 cell monolayer) was 56.6 ×10⁻⁶ cm/s. It also gave a CLint scaled ([3]; Mongolian gerbil, blood, 2 mg/kg, Table 3, IV, dose 2) of 4.82 mL/min/kg, an AUC0-last ([3]; Table 3, IV, dose 2) of 5950 ng·h/mL and a Cmax ([3]; Table 3, IV, dose 2) of 1560 ng/mL. The AUC0-last ([3]; Table 3, PO, dose 10) was 61700 ng·h/mL, the Cmax ([3]; Table 3, PO, dose 10) was 5750 ng/mL and the AUC(0-t) ([3]; blood, 2 mg/kg, Mongolian gerbils, dose 2, IV, read-out: AUC0–24) was 5950 ng·h/mL. The Cmax ([3]; blood, 2 mg/kg, Mongolian gerbils, dose 2, IV, read-out: Cmax) was 1560 ng/mL, the Vd ([3]; blood, 2 mg/kg, Table 3, IV, dose 2, read-out: Vdss) was 3.19 L/kg and the AUC(0-t) ([3]; blood, 10 mg/kg, Mongolian gerbils, dose 10, PO, read-out: AUC0–24) was 61700 ng·h/mL. For the same molecule, the Cmax ([3]; blood, 10 mg/kg, Mongolian gerbils, dose 10, PO, read-out: Cmax) was 5750 ng/mL, the AUC(0-t) ([3]; blood, 10 mg/kg, Table 3, SC, dose 10, read-out: AUC0-last) was 35700 ng·h/mL and the Cmax ([3]; blood, 10 mg/kg, Table 3, SC, dose 10, read-out: Cmax) was 3130 ng/mL. It also gave an AUC(0-t) ([3]; blood, 30 mg/kg, Table 3, PO, dose 30, read-out: AUC0-last) of 196000 ng·h/mL, a Cmax ([3]; blood, 30 mg/kg, Table 3, PO, dose 30, read-out: Cmax) of 17200 ng/mL and an AUC(0-t) ([3]; blood, 60 mg/kg, Table 3, PO, dose 60, read-out: AUC0-last) of 361000 ng·h/mL. It also gave a Cmax ([3]; blood, 60 mg/kg, Table 3, PO, dose 60, read-out: Cmax) of 26300 ng/mL, an AUC(0-t) ([3]; blood, 100 mg/kg, Table 3, PO, dose 100, read-out: AUC0-last) of 479000 ng·h/mL and a Cmax ([3]; blood, 100 mg/kg, Table 3, PO, dose 100, read-out: Cmax) of 34500 ng/mL. It also gave a bioavailability ([3]; blood, po, 10 mg/kg, Mongolian gerbils, dose 10, PO, read-out: bioavailability (%F)) of roughly 100%, a bioavailability ([3]; blood, po, 10 mg/kg, Table 3, PO, dose 10, read-out: %F) of 100% and a bioavailability ([3]; blood, sc, 10 mg/kg, Table 3, SC, dose 10, read-out: %F) of 100%. The “accumulation of the compound” value ([3]; once daily dosing to gerbils over 7 days) was “no accumulation”, the “dose proportionality of exposure” value ([3]; oral dosing to gerbils, up to 100 mg/kg) was “dose proportional” and the tolerability [4] was “well tolerated”. For the same molecule, the microsomal CLint [5] was 5.9 µL/min/mg, the pIC50 (O. volvulus) was 7.00 and the pIC50 [6] was less than 4.42.
